Measured values from ChEMBL document CHEMBL4665820, “Discovery of VU6027459: A First-in-Class Selective and CNS Penetrant mGlu Positive Allosteric Modulator Tool Compound” (ACS Med Chem Lett, 2020).

Columns and labels:
[1] = biological target: Metabotropic glutamate receptor 7 (Rattus norvegicus) (UniProt P35400); test: (§1) Positive allosteric modulation of rat mGlu7 receptor expressed in HEK293 cells co-expressing Gai5 assessed as potentiation of L-AP4-induced calcium mobilization preincubated for 140 secs and treated with EC20 L-AP4 for 125 secs and followed by subsequent addition of EC80 L-AP4 by Fluo-4-AM dye based fluorescence assay relative to maximal induction of L-AP4; type: functional, cell-based; conditions: filed as positive allosteric modulator, time 140.0 sec
Metabotropic glutamate receptor 7 (Rattus norvegicus), sequence (P35400 whole entry): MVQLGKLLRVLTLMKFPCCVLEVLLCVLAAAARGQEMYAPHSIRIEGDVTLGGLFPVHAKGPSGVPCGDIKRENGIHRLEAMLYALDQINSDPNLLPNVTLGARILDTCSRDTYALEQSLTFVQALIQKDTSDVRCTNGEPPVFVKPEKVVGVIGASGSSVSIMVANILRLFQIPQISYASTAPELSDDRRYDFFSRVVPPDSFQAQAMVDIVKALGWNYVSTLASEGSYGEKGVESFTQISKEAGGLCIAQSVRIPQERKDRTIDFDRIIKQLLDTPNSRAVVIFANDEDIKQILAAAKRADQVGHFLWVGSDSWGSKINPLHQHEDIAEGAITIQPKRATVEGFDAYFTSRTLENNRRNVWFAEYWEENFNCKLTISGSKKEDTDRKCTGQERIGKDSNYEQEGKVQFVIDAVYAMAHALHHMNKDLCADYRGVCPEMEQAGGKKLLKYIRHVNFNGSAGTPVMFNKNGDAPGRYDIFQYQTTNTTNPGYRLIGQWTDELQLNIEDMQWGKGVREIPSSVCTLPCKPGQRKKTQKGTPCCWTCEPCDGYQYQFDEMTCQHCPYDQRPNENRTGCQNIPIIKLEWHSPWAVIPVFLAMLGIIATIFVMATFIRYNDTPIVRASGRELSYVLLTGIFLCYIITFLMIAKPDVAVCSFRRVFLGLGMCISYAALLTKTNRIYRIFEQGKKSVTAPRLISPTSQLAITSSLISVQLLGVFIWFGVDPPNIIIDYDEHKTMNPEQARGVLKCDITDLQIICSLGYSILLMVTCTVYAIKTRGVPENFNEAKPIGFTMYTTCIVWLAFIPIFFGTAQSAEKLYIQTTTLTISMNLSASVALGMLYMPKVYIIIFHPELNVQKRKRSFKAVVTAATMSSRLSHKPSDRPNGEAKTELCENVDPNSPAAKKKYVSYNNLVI

[2] = biological target: T1, Metabotropic glutamate receptor 7 (Rattus norvegicus, UniProt P35400); test: as §1, with “assay” for “assay relative to maximal induction of L-AP4”; type: functional, cell-based; conditions: read-out: EC50
T1 sequence (P35400 whole entry): as above

[3] = Fraction unbound in rat plasma at 5 uM incubated for 4 hrs by equilibrium dialysis based LC-MS/MS analysis; type: ADME, cell-free
[4] = Plasma to brain permeability coefficient, Kp of the compound in Sprague-Dawley rat at 0.2 mg/kg, iv measured after 0.25 hrs by LC-MS/MS analysis; type: ADME, organism-based
[5] = Fraction unbound in rat brain at 5 uM incubated for 6 hrs by equilibrium dialysis based LC-MS/MS analysis; type: ADME, tissue-based
[6] = Unbound plasma to brain permeability coefficient, Kp of the compound in Sprague-Dawley rat at 0.2 mg/kg, iv measured after 0.25 hrs by LC-MS/MS analysis; type: ADME, organism-based; conditions: read-out: K(p,uu,brain)
[7] = Hepatic intrinsic clearance in mouse liver microsomes at 1 uM preincubated for 5 mins followed by NADPH addition and measured up to 45 mins by LC-MS/MS analysis; type: ADME, Microsome; conditions: read-out: CLH
[8] = Fraction unbound in mouse plasma at 5 uM incubated for 4 hrs by equilibrium dialysis based LC-MS/MS analysis; type: ADME, cell-free
[9] = Hepatic intrinsic clearance in rat liver microsomes at 1 uM preincubated for 5 mins followed by NADPH addition and measured up to 45 mins by LC-MS/MS analysis; type: ADME, Microsome; conditions: read-out: CLH
[10] = Fraction unbound in mouse brain at 5 uM incubated for 6 hrs by equilibrium dialysis based LC-MS/MS analysis; type: ADME, tissue-based
[11] = biological target: T1, Metabotropic glutamate receptor 7; test: Positive allosteric modulation of rat mGlu7 expressed in HEK293 cells co- expressing GIRK assessed as potentiation of L-AP4-induced thallium flux incubated for 140 sec by FluoZin2-AM dye based fluorescence analysis; type: cell-based
[12] = biological target: Sodium-dependent dopamine transporter (Homo sapiens, UniProt Q01959); test: Displacement of […] from recombinant human Dopamine transporter after 120 mins by scintillation counting analysis; type: ADME
Sodium-dependent dopamine transporter, sequence (Q01959 whole entry): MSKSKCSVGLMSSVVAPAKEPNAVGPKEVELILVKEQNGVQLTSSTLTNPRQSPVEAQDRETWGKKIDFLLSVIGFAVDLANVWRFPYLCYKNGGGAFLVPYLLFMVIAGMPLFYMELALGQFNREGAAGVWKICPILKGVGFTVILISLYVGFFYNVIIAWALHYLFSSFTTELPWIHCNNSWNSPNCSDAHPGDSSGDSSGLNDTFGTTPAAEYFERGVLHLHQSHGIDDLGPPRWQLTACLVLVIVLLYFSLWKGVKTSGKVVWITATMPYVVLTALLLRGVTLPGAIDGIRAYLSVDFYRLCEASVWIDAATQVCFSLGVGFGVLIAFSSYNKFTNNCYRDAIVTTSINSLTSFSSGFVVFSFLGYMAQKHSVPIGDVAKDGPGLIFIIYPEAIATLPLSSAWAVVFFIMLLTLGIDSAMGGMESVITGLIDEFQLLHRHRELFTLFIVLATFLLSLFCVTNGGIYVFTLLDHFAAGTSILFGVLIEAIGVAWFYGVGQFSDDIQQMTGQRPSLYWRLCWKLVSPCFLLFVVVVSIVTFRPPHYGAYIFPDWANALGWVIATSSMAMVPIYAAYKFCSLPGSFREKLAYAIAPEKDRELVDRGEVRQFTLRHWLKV

Row | Structure (SMILES) | Activity [1] | EC50 [2] | also measured
1 | N#Cc1cnc2c(-n3cncn3)cccc2c1N1CCN(c2ccccc2F)CC1 | 23% | > 10000 nM | –
2 | [2H]C([2H])([2H])Oc1cccc2c(N3CCN(c4ccccc4F)CC3)c(C#N)cnc12 | – | 1500 nM | –
3 | N#Cc1cnc2c(OC(F)F)cccc2c1N1CCN(c2ccccc2F)CC1 | 68% | > 10000 nM | –
4 | N#Cc1cnc2c(OC3CCOC3)cccc2c1N1CCN(c2ccccc2F)CC1 (racemic) | – | 1300 nM | fraction unbound at 4 h, 5 µM [3]: 0.03; Kp at 0.25 h [4]: 4.36; fraction unbound at 6 h, 5 µM [5]: 0.006; Kp uu at 0.25 h [6]: 0.79; CLint scaled at 1 µM [7]: 75.8 mL/min/kg; fraction unbound at 4 h, 5 µM [8]: 0.02; CLint scaled at 1 µM [9]: 54 mL/min/kg; fraction unbound at 6 h, 5 µM [10]: 0.01; EC50 [11]: 1000 nM; Ki [12]: > 10000 nM
5 | N#Cc1cnc2c(OC3CCOC3)cccc2c1N1CCN(c2ccccc2F)CC1 (single isomer, unassigned; (-)) [listing 1 of 2 here] | – | 1100 nM | –
6 | N#Cc1cnc2c(OCC3CCOC3)cc(F)cc2c1N1CCN(c2ccccc2F)CC1 (stereo not given) | 76% | 650 nM | –
7 | N#Cc1cnc2c(OC3CCOC3)cccc2c1N1CCN(c2ccccc2F)CC1 (single isomer, unassigned; (+)) [listing 1 of 2 here] | – | 1100 nM | –
8 | N#Cc1cnc2c(OCC3CCOC3)cccc2c1N1CCN(c2ccccc2F)CC1 (stereo in doubt; (-)-20f) | 89% | – | –
9 | N#Cc1cnc2c(OC3CCC3)cc(F)cc2c1N1CCN(c2ccccc2F)CC1 | 23% | > 10000 nM | –
10 | N#Cc1cnc2c(N3CCCC3)cccc2c1N1CCN(c2ccccc2F)CC1 | 22% | > 10000 nM | –
11 | COc1c(F)c(F)cc2c(N3CCN(c4ccccc4F)CC3)c(C#N)cnc12 | 62% | 1100 nM | IC50 [12]: 2200 nM
12 | N#Cc1cnc2c(OCC3CCOC3)cccc2c1N1CCN(c2ccccc2F)CC1 (single isomer, unassigned; (+)) | – | 1900 nM | –
13 | N#Cc1cnc2c(N3CCCCC3)cccc2c1N1CCN(c2ccccc2F)CC1 | 24% | > 10000 nM | –
14 | COc1ccc(F)c2c(N3CCN(c4ccccc4F)CC3)c(C#N)cnc12 | 35% | > 10000 nM | IC50 [12]: 4000 nM
15 | N#Cc1cnc2c(OC3CCOC3)cccc2c1N1CCN(c2ccccc2F)CC1 (single isomer, unassigned; (+)) [listing 2 of 2 here] | 85% | – | –
16 | N#Cc1cnc2c(O)cccc2c1N1CCN(c2ccccc2F)CC1 | 90% | > 10000 nM | –
17 | N#Cc1cnc2c(OC(F)F)cc(F)cc2c1N1CCN(c2ccccc2F)CC1 | 98% | 3800 nM | –
18 | N#Cc1cnc2c(OC3CCOC3)cccc2c1N1CCN(c2ccccc2F)CC1 (single isomer, unassigned; (-)) [listing 2 of 2 here] | 70% | – | –
